Laboratory results as given in US20240016805A1, “THERAPEUTIC METHODS AND COMPOSITIONS FOR TREATING PANCREATIC CANCER USING DEVIMISTAT” (Cornerstone Pharmaceuticals, Inc., priority 2020, published 2024).

What was measured:
[1] = Adverse events and potential risks attributed to the study drugs; type: in vivo; conditions: expected adverse event
Text: Probably related: Creatinine (expected Adverse Event).
Attribution is the relationship between an adverse event or serious adverse event and the study drug. Attribution will be assigned as follows: • Definite—The AE is clearly related to the study drug. • Probable—The AE is likely related to the study drug. • Possible—The AE may be related to the study drug. • Unlikely—The AE is doubtfully related to the study drug. • Unrelated—The AE is clearly NOT related to the study drug.

[2] = Animal studies of IV administration of devimistat (acute toxicity, local inflammation); type: in vivo
Procedure: Devimistat must be administered IV, via an IV catheter that is free flowing and free of air in the dead space of the IV catheter, to minimize vascular irritation, inflammation and acute toxicity of devimistat (Study NCL-049). […] To avoid local reactions at and around the site of administration, devimistat must be administered via a central venous catheter.
Devimistat must not be administered as a bolus, but by infusion, at a rate of ˜4 mL/min, via a central venous catheter with D5W running at a rate of about 125-150 mL/hr. This is to minimize potential acute toxicity of devimistat, according to animal studies.

[3] = Compatibility of devimistat with IV infusion sets, IV bags and syringes; type: physicochemical
Procedure: Therefore, DEHP-containing IV infusion sets, IV bags or syringes should not be used in mixing or administration of devimistat.
A compatibility study has been conducted showing that devimistat is compatible with 4 commonly used IV infusion sets. Therefore, these 4 types of IV infusion sets, and IV infusion sets that are made with the same materials, can be used to administer devimistat.
Compatibility studies have shown that devimistat drug product (50 mg/mL), and drug product diluted with D5W to various concentrations (1.6-25 mg/mL) are compatible with various types of syringes, as listed below. Therefore, any of these types of syringes, and syringes that are made with the same materials, can be used to administer devimistat. Also, glass syringes can also be used, since glass (such as glass containers) is compatible with devimistat drug product. • Norm-Ject, polyethylene barrel, polyethylene plunger, latex free (Henke Sass Wolf GMBH) syringes • Becton Dickinson syringes • Terumo syringes • Monoject syringes • Glass syringes

[4] = system: metastatic pancreatic cancer; conditions: cited from earlier work
[5] = system: advanced pancreatic cancer; conditions: gemcitabine vs. fluorouracil (Burris 1997); cited from earlier work
[6] = system: metastatic pancreatic cancer; conditions: metastatic pancreatic cancer (Conroy 2011); cited from earlier work
metastatic PDA = conditions: patients with metastatic PDA (Von Hoff 2013); cited from earlier work
[7] = 18 patients who received the MTD, with mFOLFIRINOX

Compound | adverse events probably related [1] | effect of accidental co-administration of extra air in the dead space of IV catheters ([2]; animal studies, IV administration) | effect of accidental leakage into the perivascular space during IV administration ([2]; in vivo, iv) | compatibility with IV infusion sets ([3]; 4 commonly used IV infusion sets (PVC, latex, polyethylene)) | leaching of DEHP ([3]; DEHP-containing IV infusion sets and IV bags) | Grade 1-2 toxicity observed [4, 7] | common grade 3/4 toxicities [4, 7] | specific risks attributed beyond the toxicities associated with mFOLFIRINOX ([4]; pilot Phase 1 study) | overall survival [5] [months] | PFS [6] [months] | overall survival [6] [months] | partial response rate [6] [%] | overall survival (metastatic PDA) [months] | progression free survival (PFS) (metastatic PDA) [months]
O=C(O)CCCCC(CCSCc1ccccc1)SCc1ccccc1 (stereo not drawn) [devimistat, 6,8-bis(benzylsulfanyl)octanoic acid] | Creatinine | potential to induce acute toxicity | can induce significant local inflammation | compatible | can cause leaching of DEHP | sensory neuropathy | hypokalemia, diarrhea, abdominal pain, hyperglycemia, peripheral neuropathy, neutropenia, lymphopenia, anemia, and thrombocytopenia | no specific risks that have been definitively observed and attributed to devimistat |  |  |  |  |  | 
O=c1[nH]cc(F)c(=O)[nH]1 [fluorouracil, 5-fluoro-1H-pyrimidine-2,4-dione] |  |  |  |  |  |  |  |  | 4.4 |  |  |  |  | 
Nc1ccn([C@@H]2O[C@H](CO)[C@@H](O)C2(F)F)c(=O)n1 [gemcitabine] |  |  |  |  |  |  |  |  | 5.6 | 3.3 | 6.8 | 9 | 6.7 | 3.7
